Experimental data from PMC4492759, “Pharmacological profiling of the hemodynamic effects of cannabinoid ligands: a combined in vitro and in vivo approach” (Pharmacology Research & Perspectives, 2015).
pEC50: −log10 of the molar value.

Experiments:
rat CB1 = molecular target: T1, rat CB1 (Rattus norvegicus, UniProt P20272); assay: [35S]-GTPγS binding, membranes of HEK293s cells transfected with rat CB1; type: biochemical; conditions: agonist mode; mean ± SEM, at least three experiments; read-out: CB1 EC50, Rat
T1 construct: expressed in transfected cells; host or cells: HEK293s, transient transfection; membranes prepared
Procedure: (§1) Antagonist assays were performed similarly, with the addition of an EC80 concentration of CP55940 as a nonselective CB1/CB2 agonist in conjunction with the ligand to be tested. Nonspecific binding was determined in the presence of 20 μmol/L unlabeled GTPγS. The reaction was terminated by addition of ice-cold wash buffer (50 mmol/L Tris-HCl, 5 mmol/L MgCl2, 50 mmol/L NaCl; pH 7.4) followed by rapid filtration under vacuum through 96-well B-glass fiber filter plates (PerkinElmer, Waltham, Massachusetts, USA) using a Biomek FX (Beckman Coulter, Bromma, Sweden). The filter plates were dried (30 min at 50°C) before scintillation liquid (PerkinElmer) was added onto the filters and the bound radioactivity was determined using a scintillation counter (Wallac). Data were fitted with a four-parameter logistic fit using the equation y = A + (B − A)/1 + ((C/x)^D), where A is no activation, B is full activation, C is the EC50, and D is the Hill slope. All data were based on at least three independent experiments.

mouse CB1 = molecular target: T2, mouse CB1 (Mus musculus, UniProt P47746); assay: [35S]-GTPγS binding, membranes of HEK293s cells transfected with mouse CB1; type: biochemical; conditions: agonist mode; mean ± SEM, at least three experiments; read-out: CB1 EC50, Mouse
T2 construct: expressed in transfected cells; host or cells: HEK293s, transient transfection; membranes prepared
Procedure: as §1

[1] = tested on: anesthetized Sprague–Dawley (SD) rats; assay: Hemodynamic responses (MABP, HR) in anesthetized normotensive rats; type: in vivo, rat; conditions: O-1602 5–100 ng kg−1 i.v.
Procedure: All experiments performed under terminal anesthesia were carried out following approval by Robert Gordon University Animal Ethics Panel. Anesthesia was induced in male SD rats (200–300 g) by sodium pentobarbital [60 mg kg^−1 intraperitoneal (i.p.) injection]. Male/female WT and GPR55^−/− mice (25–35 g) were anesthetized with a mixture of ketamine (120 mg kg^−1) and xylazine (16 mg kg^−1) via i.p. injection. For both species the trachea was cannulated to allow artificial respiration with room air when required (54 strokes min^−1 and tidal volume 1.5 mL 100 g^−1 for rats; 120 strokes min^−1 and tidal volume 100 μL 10 g^−1 for mice) and the left carotid artery and right jugular vein were cannulated for the measurement of arterial BP (MLT844 Physiological Pressure Transducer; AD Instruments, Oxford, UK) and drug administration, respectively. Core temperature was monitored continuously and maintained at 37–38°C with the aid of a Vetcare heated pad (Harvard Apparatus Ltd., Boston, Massachusetts, USA). Anesthesia was monitored by foot pinch reflex and maintained throughout by administration of additional doses of anesthetic (rats: 3–4 mg kg^−1 of sodium pentobarbital salt i.v.; mice: 50 μL 25 g^−1of ketamine/xylazine i.p.) every 40 min, or as required. […] Heart rate (HR) was calculated from the ECG and recorded throughout the entire experimental period. After a stabilization period of approximately 15 min dose–response experiments were carried out as described below.
As a preliminary assessment of the effects of ACEA on arterial BP, a single bolus intravenous dose (3 mg kg^−1; selected from the literature as a dose known to produce a depressor response) was given to anesthetized rats. […] The time interval between drug administrations was 10–15 min to allow BP values to return to predrug values.

conscious SHR = assay: Blood pressure and heart rate responses in conscious hypertensive rats (SHR)
Procedure: Following anesthesia with isoflurane (4% in air followed by 2% during surgery) with supplemental Romefen® (10 mg kg^−1 s.c.; Merial SAS, Lyon, France) for analgesia, a polyethylene catheter (PE10) was inserted into the abdominal aorta, proximal to the kidneys, for BP recording, and a silicon catheter (SEDAT, Irigny, France) was inserted into the jugular vein for drug administration. Both catheters were tunneled subcutaneously to the neck region and anchored to an inert button. Immediately after completion of surgery the rats were connected to a tethered swivel system with a continuous intra-arterial infusion (700 μL h^−1) of 0.9% NaCl containing melagatran (10 mg L^−1) in order to keep the arterial line open. The anesthetic and surgical procedures for the CB1^−/−, GPR55^−/−, and WT mice used for the studies in conscious animals were identical to those in the rat, with the exception that the arterial catheter was placed in the descending aorta via the carotid artery. Following the completion of surgery, the animals were allowed to recover for 24 h with free access to food and water.
In order to take account of any vehicle responses and variations in the time course of the responses to the various cannabinoid ligands, a standard approach was adopted to measuring the BP responses in all experimental models. […] All drug responses were compared directly with the vehicle responses to determine the exact magnitude of the response to the ligand.

[2] = tested on: conscious WT, CB1−/− and GPR55−/− mice; assay: Blood pressure and heart rate responses in conscious mice (WT, CB1−/−, GPR55−/−); conditions: for HR bradycardic response - area above the curve / MABP depressor response - area above the curve: metoprolol pretreated
[3] = O-1602 5 mg kg−1, +AM281 (10 mg kg−1), metoprolol pretreated
[4] = O-1602 5 mg kg−1, +CBD (5 mg kg−1), metoprolol pretreated
[5] = O-1602 5 mg kg−1, +CBD and AM281, metoprolol pretreated
[6] = O-1602 10 mg kg−1, +AM281 (10 mg kg−1), metoprolol pretreated
[7] = O-1602 10 mg kg−1, +CBD (5 mg kg−1), metoprolol pretreated
[8] = O-1602 10 mg kg−1, +CBD and AM281, metoprolol pretreated
[9] = O-1602 10 mg kg−1, Control, metoprolol pretreated
[10] = O-1602 20 mg kg−1, +AM281 (10 mg kg−1), metoprolol pretreated
[11] = O-1602 20 mg kg−1, +CBD (5 mg kg−1), metoprolol pretreated
[12] = O-1602 20 mg kg−1, +CBD and AM281, metoprolol pretreated
[13] = O-1602 20 mg kg−1, Control, metoprolol pretreated
[14] = O-1602 5 mg kg−1, +CBD (5 mg kg−1)
[15] = O-1602 5 mg kg−1, column Control
[16] = O-1602 10 mg kg−1, +CBD (5 mg kg−1)
[17] = O-1602 10 mg kg−1, column Control
[18] = O-1602 15 mg kg−1, +CBD (5 mg kg−1)
[19] = O-1602 15 mg kg−1, column Control

T1 sequence (P20272 whole entry): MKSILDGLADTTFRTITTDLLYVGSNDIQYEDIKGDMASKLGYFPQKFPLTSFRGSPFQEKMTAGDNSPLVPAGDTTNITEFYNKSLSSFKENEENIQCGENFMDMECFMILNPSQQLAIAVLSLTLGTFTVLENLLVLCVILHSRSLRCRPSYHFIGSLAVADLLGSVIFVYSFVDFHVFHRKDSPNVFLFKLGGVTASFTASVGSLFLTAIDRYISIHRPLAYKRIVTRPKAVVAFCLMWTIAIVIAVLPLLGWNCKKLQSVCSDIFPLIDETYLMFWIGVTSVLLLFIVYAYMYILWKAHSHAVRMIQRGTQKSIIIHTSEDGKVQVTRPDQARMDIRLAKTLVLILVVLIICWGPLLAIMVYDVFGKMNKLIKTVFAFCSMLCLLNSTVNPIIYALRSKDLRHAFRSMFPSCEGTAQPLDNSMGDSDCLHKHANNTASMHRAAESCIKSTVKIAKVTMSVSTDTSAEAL
T2 sequence (P47746 whole entry): as the sequence (P20272 whole entry) above, with E95D counted along it

C=C(C)[C@@H]1CCC(C)=C[C@H]1c1c(C)cc(O)cc1O [O-1602]
pEC50 (rat CB1): < 4.52 | pEC50 (mouse CB1): < 4.52 | changes in MABP or HR over and above vehicle [1]: did not produce any changes | HR tachycardic response – area under the curve (conscious SHR; [3]): 39 ± 11 arbitrary units | MABP depressor response - area above the curve (conscious SHR; [3]): 196 ± 44 arbitrary units | HR tachycardic response – area under the curve (conscious SHR; [4]): 68 ± 11 arbitrary units | MABP depressor response - area above the curve (conscious SHR; [4]): 189 ± 32 arbitrary units | HR tachycardic response – area under the curve (conscious SHR; [5]): 53 ± 22 arbitrary units | MABP depressor response - area above the curve (conscious SHR; [5]): 41 ± 17 arbitrary units | MABP depressor response - area above the curve (conscious SHR; O-1602 5 mg kg−1, Control, metoprolol 10 mg kg−1 i.v. pretreated): 59 ± 21 arbitrary units | HR tachycardic response – area under the curve (conscious SHR; O-1602 5 mg kg−1, Control, metoprolol pretreated): 61 ± 24 arbitrary units | HR tachycardic response – area under the curve (conscious SHR; [6]): 40 ± 12 arbitrary units | MABP depressor response - area above the curve (conscious SHR; [6]): 160 ± 31 arbitrary units | HR tachycardic response – area under the curve (conscious SHR; [7]): 79 ± 29 arbitrary units | MABP depressor response - area above the curve (conscious SHR; [7]): 23 ± 17 arbitrary units | HR tachycardic response – area under the curve (conscious SHR; [8]): 37 ± 32 arbitrary units | MABP depressor response - area above the curve (conscious SHR; [8]): 180 ± 29 arbitrary units | HR tachycardic response – area under the curve (conscious SHR; [9]): 18 ± 8 arbitrary units | MABP depressor response - area above the curve (conscious SHR; [9]): 56 ± 22 arbitrary units | HR tachycardic response – area under the curve (conscious SHR; [10]): 56 ± 26 arbitrary units | MABP depressor response - area above the curve (conscious SHR; [10]): 191 ± 30 arbitrary units | HR tachycardic response – area under the curve (conscious SHR; [11]): 98 ± 32 arbitrary units | MABP depressor response - area above the curve (conscious SHR; [11]): 73 ± 38 arbitrary units | HR tachycardic response – area under the curve (conscious SHR; [12]): 38 ± 16 arbitrary units | MABP depressor response - area above the curve (conscious SHR; [12]): 199 ± 29 arbitrary units | HR tachycardic response – area under the curve (conscious SHR; [13]): 72 ± 13 arbitrary units | MABP depressor response - area above the curve (conscious SHR; [13]): 26 ± 16 arbitrary units | changes in MABP or HR (conscious SHR; O-1602 alone, three ascending doses 5, 10, and 20 mg kg−1 spaced 20 min apart): did not induce any changes | HR bradycardic response - area above the curve ([2]; O-1602 5 mg kg−1, +AM281): 55.3 ± 20.9 arbitrary units | MABP depressor response - area above the curve ([2]; O-1602 5 mg kg−1, +AM281): 64.6 ± 17.5 arbitrary units | HR bradycardic response - area above the curve ([2]; O-1602 5 mg kg−1, +CBD & AM281): 154.8 ± 61.7 arbitrary units | HR bradycardic response - area above the curve [2, 14]: 17.4 ± 11.7 arbitrary units | MABP depressor response - area above the curve [2, 14]: 99.6 ± 25.8 arbitrary units | MABP depressor response - area above the curve ([2]; O-1602 5 mg kg−1, +CBD and AM281): 73.3 ± 24.5 arbitrary units | HR bradycardic response - area above the curve [2, 15]: 41.1 ± 20.8 arbitrary units | MABP depressor response - area above the curve [2, 15]: 91.9 ± 38.2 arbitrary units | HR bradycardic response - area above the curve ([2]; O-1602 10 mg kg−1, +AM281): 130.5 ± 20.5 arbitrary units | MABP depressor response - area above the curve ([2]; O-1602 10 mg kg−1, +AM281): 95.2 ± 6.5 arbitrary units | HR bradycardic response - area above the curve ([2]; O-1602 10 mg kg−1, +CBD & AM281): 298.2 ± 111.7 arbitrary units | HR bradycardic response - area above the curve [2, 16]: 186.8 ± 42.1 arbitrary units | MABP depressor response - area above the curve [2, 16]: 73.5 ± 17.8 arbitrary units | MABP depressor response - area above the curve ([2]; O-1602 10 mg kg−1, +CBD and AM281): 114.6 ± 17.6 arbitrary units | HR bradycardic response - area above the curve [2, 17]: 48.7 ± 25.4 arbitrary units | MABP depressor response - area above the curve [2, 17]: 44.1 ± 9.6 arbitrary units | HR bradycardic response - area above the curve ([2]; O-1602 15 mg kg−1, +AM281): 183.1 ± 50.9 arbitrary units | MABP depressor response - area above the curve ([2]; O-1602 15 mg kg−1, +AM281): 101.5 ± 4.1 arbitrary units | HR bradycardic response - area above the curve ([2]; O-1602 15 mg kg−1, +CBD & AM281): 286.6 ± 105.4 arbitrary units | HR bradycardic response - area above the curve [2, 18]: 197.1 ± 17.1 arbitrary units | MABP depressor response - area above the curve [2, 18]: 148.9 ± 17.1 arbitrary units | MABP depressor response - area above the curve ([2]; O-1602 15 mg kg−1, +CBD and AM281): 119.7 ± 18.1 arbitrary units | HR bradycardic response - area above the curve [2, 19]: 95.3 ± 6.5 arbitrary units | MABP depressor response - area above the curve [2, 19]: 61.3 ± 10.9 arbitrary units | effect on MABP ([2]; O-1602, conscious CB1−/− mice): dose-dependent depressor response | effect on HR ([2]; O-1602 alone, highest dose tested, conscious WT mice): transient bradycardia | effect on MABP ([2]; O-1602 alone, conscious WT mice): no effect | depressor response ([2]; O-1602 in the presence of AM281 (10 mg kg−1), GPR55−/− mice): did not elicit a depressor response
